Assay results: the supplement of paper PMC11451515

Tested on: NOMO1
Assay: cell viability relative to DMSO control; higher = less cytotoxic
Conditions: 48 h
How it was run: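 Viability is a per-plate percentage relative to DMSO wells, with cell-free wells as background. CellTiter-Glo One luminescence was read after 48 h at 37°C on 1536-well plates (5 μl) of NOMO1 or SEM (500 cells/well) or P12-Ichikawa (1000 cells/well) leukemia cells. The cells had been adapted for at least four passages in each medium and pin-dosed with library compounds in DMSO from 47 μM to 0.79 nM in 11 threefold steps.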

[1] = HPLM + 10% dialyzed FBS, 0.000781 µM
[2] = HPLM + 10% dialyzed FBS, 0.00234 µM
[3] = HPLM + 10% dialyzed FBS, 0.00702 µM
[4] = HPLM + 10% dialyzed FBS, 0.0211 µM
[5] = HPLM + 10% dialyzed FBS, 0.0632 µM
[6] = HPLM + 10% dialyzed FBS, 0.19 µM
[7] = HPLM + 10% dialyzed FBS, 0.569 µM
[8] = HPLM + 10% dialyzed FBS, 1.71 µM
[9] = HPLM + 10% dialyzed FBS, 5.12 µM
[10] = HPLM + 10% dialyzed FBS, 15.4 µM
[11] = HPLM + 10% dialyzed FBS, 46.1 µM
[12] = RPMI 5 mM glucose + 10% FBS, 0.000781 µM
[13] = RPMI 5 mM glucose + 10% FBS, 0.00234 µM
[14] = RPMI 5 mM glucose + 10% FBS, 0.00702 µM
[15] = RPMI 5 mM glucose + 10% FBS, 0.0211 µM
[16] = RPMI 5 mM glucose + 10% FBS, 0.0632 µM
[17] = RPMI 5 mM glucose + 10% FBS, 0.19 µM
[18] = RPMI 5 mM glucose + 10% FBS, 0.569 µM
[19] = RPMI 5 mM glucose + 10% FBS, 1.71 µM
[20] = RPMI 5 mM glucose + 10% FBS, 5.12 µM
[21] = RPMI 5 mM glucose + 10% FBS, 15.4 µM
[22] = RPMI 5 mM glucose + 10% FBS, 46.1 µM
[23] = RPMI 5 mM glucose + 10% dialyzed FBS, 0.000781 µM
[24] = RPMI 5 mM glucose + 10% dialyzed FBS, 0.00234 µM
[25] = RPMI 5 mM glucose + 10% dialyzed FBS, 0.00702 µM
[26] = RPMI 5 mM glucose + 10% dialyzed FBS, 0.0211 µM
[27] = RPMI 5 mM glucose + 10% dialyzed FBS, 0.0632 µM
[28] = RPMI 5 mM glucose + 10% dialyzed FBS, 0.19 µM
[29] = RPMI 5 mM glucose + 10% dialyzed FBS, 0.569 µM
[30] = RPMI 5 mM glucose + 10% dialyzed FBS, 1.71 µM
[31] = RPMI 5 mM glucose + 10% dialyzed FBS, 5.12 µM
[32] = RPMI 5 mM glucose + 10% dialyzed FBS, 15.4 µM
[33] = RPMI 5 mM glucose + 10% dialyzed FBS, 46.1 µM

Row | SMILES | cell viability [1] | cell viability [2] | cell viability [3] | cell viability [4] | cell viability [5] | cell viability [6] | cell viability [7] | cell viability [8] | cell viability [9] | cell viability [10] | cell viability [11] | cell viability [12] | cell viability [13] | cell viability [14] | cell viability [15] | cell viability [16] | cell viability [17] | cell viability [18] | cell viability [19] | cell viability [20] | cell viability [21] | cell viability [22] | cell viability [23] | cell viability [24] | cell viability [25] | cell viability [26] | cell viability [27] | cell viability [28] | cell viability [29] | cell viability [30] | cell viability [31] | cell viability [32] | cell viability [33]
1 | CC(C)C1=C(O)C=C(O)C(=C1)C/2=N/NC(=O)N2C3=CC4=C(C=C3)[N](C)C=C4 | 134% | 116% | 123% | 130% | 118% | 29.5% | 23.4% | 23.2% | 20.7% | 21% | 15.8% | 106% | 101% | 107% | 112% | 105% | 19.6% | 16.3% | 15.3% | 16.8% | 16.3% | 13.3% | 120% | 117% | 130% | 118% | 95.9% | 32.6% | 22.3% | 19.6% | 20% | 16.9% | 17.6%
2 | O=C(Nc1cc2cc[nH]c2cn1)c1ccccc1 | 97.5% | 116% | 94.4% | 122% | 108% | 102% | 123% | 103% | 21% | 4.39% | 0.639% | 95.6% | 101% | 97.2% | 110% | 100% | 108% | 99.4% | 88.4% | 54.6% | 18.9% | 2.79% | 96.6% | 104% | 102% | 98.5% | 103% | 105% | 105% | 94% | 59.1% | 45.9% | 7.31%
3 | C[N]1C=C(C2=C1C=CC=C2)\C3=C(\C(=O)NC3=O)C4=C5CC(CN)CC[N]5C6=C4C=CC=C6 (centres undefined) | 94.9% | 118% | 115% | 101% | 109% | 120% | 115% | 110% | 113% | 90% | 37.4% | 88.5% | 104% | 94.1% | 97.8% | 102% | 100% | 93.5% | 95.8% | 96.8% | 81.3% | 44.1% | 92.8% | 100% | 106% | 114% | 105% | 111% | 105% | 100% | 104% | 88% | 63.4%
4 | CN(NC(=O)CC(=O)NN(C)C(=S)c1ccccc1)C(=S)c1ccccc1 | 85.2% | 101% | 91.7% | 111% | 52.3% | 21.7% | 3.16% | 4.21% | 4.19% | 4.38% | 6.98% | 86% | 80.2% | 97.5% | 95.2% | 53.4% | 16.7% | 3.21% | 3.39% | 4.47% | 6.75% | 15.8% | 83.4% | 89.2% | 82.1% | 94.6% | 39% | 10.7% | 2.4% | 2.7% | 3.68% | 2.79% | 9.44%
5 | COc1ccc(-c2nc(N3CCOCC3)c3sc(CN(C)c4ncc(C(=O)NO)cn4)cc3n2)cn1 | 109% | 132% | 86.2% | 62.8% | 12.6% | 8.22% | 7.83% | 8.13% | 7.89% | 7.72% | 6.31% | 110% | 112% | 100% | 65.4% | 14.2% | 8.1% | 8.11% | 8.29% | 7.05% | 7.28% | 6.26% | 117% | 132% | 104% | 73.7% | 22.8% | 7.51% | 7.58% | 7.17% | 6.72% | 6.98% | 6.02%
6 | Cn1c(CNc2ccc(C(=N)N)cc2)nc2cc(C(=O)N(CCC(=O)O)c3ccccn3)ccc21 | 109% | 106% | 103% | 109% | 103% | 95.5% | 116% | 119% | 125% | 124% | 111% | 92% | 92.8% | 94.6% | 95.5% | 99.3% | 98.7% | 97.7% | 109% | 97.3% | 103% | 111% | 94.5% | 91.3% | 95.9% | 93.8% | 113% | 99.6% | 94% | 104% | 96% | 110% | 116%
7 | Cc1cccc(Nc2nc(-c3ccncc3)cs2)c1 | 96.3% | 138% | 121% | 142% | 137% | 140% | 111% | 145% | 142% | 136% | 134% |  |  |  |  |  |  |  |  |  |  |  | 122% | 121% | 128% | 123% | 125% | 135% | 134% | 129% | 128% | 134% | 107%
8 | CCC(C)(Oc1ccc(C2(c3ccc(OC(C)(CC)C(=O)O)cc3)CCCCC2)cc1)C(=O)O (centres undefined) | 89.3% | 107% | 89.4% | 108% | 118% | 101% | 93.8% | 124% | 102% | 85.1% | 99.4% | 104% | 101% | 95.5% | 99.2% | 102% | 89.4% | 97.6% | 97.7% | 92.8% | 84% | 84.3% | 100% | 94.4% | 111% | 96.1% | 99.8% | 94% | 107% | 103% | 87% | 93.9% | 101%
9 | CN[C@@H]1[C@H](O)[C@H](NC)[C@H]2O[C@@]3(O)C(=O)C[C@@H](C)O[C@H]3O[C@@H]2[C@H]1O | 123% | 135% | 117% | 113% | 124% | 127% | 128% | 121% | 103% | 87.4% | 42.6% |  |  |  |  |  |  |  |  |  |  |  | 110% | 115% | 115% | 119% | 122% | 121% | 113% | 114% | 119% | 103% | 91.4%
10 | CC(C)CC(=O)N[C@H](C(=O)N[C@H](C(=O)N[C@@H](CC(C)C)[C@@H](O)CC(=O)N[C@@H](C)C(=O)N[C@@H](CC(C)C)[C@@H](O)CC(=O)O)C(C)C)C(C)C | 107% | 96.3% | 120% | 106% | 112% | 117% | 118% | 108% | 119% | 124% | 119% | 105% | 119% | 94.4% | 107% | 102% | 114% | 99.8% | 108% | 93.1% | 97.8% | 90.3% | 91.6% | 98.4% | 111% | 115% | 104% | 110% | 112% | 113% | 116% | 107% | 105%
11 | O=C1c2c(O)ccc(O)c2C(=O)c2c(NCCNCCO)ccc(NCCNCCO)c21 | 95% | 113% | 127% | 131% | 120% | 124% | 29.3% | 92.4% | 27.3% | 24.3% | 5.26% | 102% | 102% | 107% | 108% | 100% | 105% | 18.5% | 110% | 18.2% | 17.2% | 4.37% | 107% | 113% | 108% | 113% | 112% | 103% | 53.2% | 107% | 20.3% | 27.1% | 3.81%
12 | Cn1cnc2c1c(=O)[nH]c(=O)n2C | 112% | 102% | 102% | 119% | 108% | 110% | 116% | 96.4% | 105% | 78.3% | 5.56% | 99.2% | 110% | 96.2% | 92.6% | 97% | 96.5% | 103% | 88.1% | 99.3% | 91.6% | 7.98% | 101% | 91.7% | 99% | 114% | 109% | 104% | 100% | 102% | 96% | 90% | 9.87%
13 | Nc1ncnc2c1c(-c1cnc3[nH]ccc3c1)nn2C1CCCC1 |  |  |  |  |  |  |  |  |  |  |  | 108% | 120% | 141% | 135% | 119% | 114% | 112% | 93.5% | 66.7% | 54.4% | 45.4% | 106% | 119% | 103% | 109% | 131% | 100% | 104% | 81.7% | 61.8% | 52.8% | 45.8%
14 | C\C1=C(\C=C(C#N)/C(=O)N1)C2=C[N]3C=CN=C3C=C2 | 69.8% | 82.7% | 88.2% | 79.1% | 80.9% | 79.9% | 83.7% | 89.3% | 97.9% | 94.4% | 93% | 85.2% | 82.2% | 80.6% | 80.9% | 84.5% | 80.1% | 94.5% | 72.7% | 81.1% | 84.8% | 78.9% | 78.8% | 81.1% | 88.1% | 83.4% | 84.2% | 84.5% | 90.2% | 92% | 91.3% | 85.3% | 74.6%
